Reference: ChEMBL document CHEMBL1144744, “Hypoxia-inducible factor-1 and nuclear factor-kappaB inhibitory meroterpene analogues of bakuchiol, a constituent of the seeds of Psoralea corylifolia” (Bioorg Med Chem Lett, 2008)

What was measured:
[1] = target: Hypoxia inducible factors; HIF-1-alpha, HIF-2-alpha (Homo sapiens, UniProt Q16665+Q99814); test: Inhibition of hypoxia-induced HIF1 activation in human AGS cells by reporter gene assay; format: cell-based
AGS = test: Cytotoxicity against human AGS cells by MTT assay; format: functional, cell-based
[2] = Inhibition of TNF-alpha-induced NF-kappaB activation in human HeLa cells; format: cell-based
HeLa = test: Cytotoxicity against human HeLa cells by MTT assay; format: functional, cell-based

| SMILES | IC50 [1] [µM] | IC50 (AGS) [µM] | IC50 [2] [µM] | IC50 (HeLa) [µM] |
| --- | --- | --- | --- | --- |
| C=C[C@@](C)(/C=C/c1ccc(OC(C)=O)cc1)CCC=C(C)C [ACETYLBAKUCHIOL] | 5.7 | 26.8 | 5.7 | 18.1 |
| C=C[C@@](C)(/C=C/c1ccc(O)cc1)CCC(O)C(C)(C)O (some centres not stated) | > 50 | > 50 | > 50 | > 50 |
| C=C[C@@](C)(/C=C/c1ccc(OCC)cc1)CCC=C(C)C | 26.3 | > 50 | 12.2 | > 50 |
| C=C[C@@](C)(/C=C/c1ccc(O)cc1)CCC1OC1(C)C (some centres not stated) | > 50 | > 50 | > 50 | > 50 |
| C=C[C@@](C)(/C=C/c1ccc(OC(C)(C)[C@@H](O)CC[C@@](C)(C=C)/C=C/c2ccc(O)cc2)cc1)CCC=C(C)C | > 50 | > 50 | 12.2 | > 50 |
| CO[C@H]1/C=C\C=C(/C)C(=O)NC2=CC(=O)C(NCCN(C)C)=C(C[C@@H](C)C[C@H](OC)[C@H](O)[C@@H](C)/C=C(\C)[C@@H]1OC(N)=O)C2=O [ALVESPIMYCIN] | 0.0036 | 16 | 0.15 | 2.06 |
| C=C[C@@](C)(/C=C/c1ccc(O)cc1)CCC=C(C)C [BAKUCHIOL] | 6.1 | 15.3 | 6.9 | 11 |
| C=C[C@@](C)(/C=C/c1ccc(OC)cc1)CCC=C(C)C | 8.7 | 55.8 | 5.7 | > 50 |
